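Interpolation was linear, between the two tested concentrations surrounding the appropriate level; five concentrations were tested over 48 hours in 96-well plates. Abbreviation: GI50, concentration required for 50% inhibition of growth. TGI: concentration producing complete growth inhibition.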
Assays:
Experiment in all cases: growth of human tumour cells (NCI), 48 h
CAKI-1 renal = system: CAKI-1 renal
SF-295 CNS = system: SF-295 CNS
HCT-15 colon = system: HCT-15 colon
SNB-19 CNS = system: SNB-19 CNS
RXF 393 renal = system: RXF 393 renal
SR leukemia = system: SR leukemia
MCF7 breast = system: MCF7 breast
OVCAR-8 ovarian = system: OVCAR-8 ovarian

Compound | GI50 (CAKI-1 renal) [µM] | TGI (CAKI-1 renal) [µM] | GI50 (SF-295 CNS) [µM] | TGI (SF-295 CNS) [µM] | GI50 (HCT-15 colon) [µM] | TGI (HCT-15 colon) [µM] | GI50 (SNB-19 CNS) [µM] | TGI (SNB-19 CNS) [µM] | GI50 (RXF 393 renal) [µM] | TGI (RXF 393 renal) [µM] | GI50 (SR leukemia) [µM] | TGI (SR leukemia) [µM] | GI50 (MCF7 breast) [µM] | TGI (MCF7 breast) [µM] | GI50 (OVCAR-8 ovarian) [µM] | TGI (OVCAR-8 ovarian) [µM]
O=c1c2c(c3ccccc3n1-c1ccccc1)NC(=S)NC2c1ccc(Cl)cc1 (stereo not given) | 3.16 | 27.1 | 1.34 | 7.16 | 2.1 | 26.8 | 4.07 | > 100 | 5.34 | 25.5 | 4.76 | > 100 | 4.75 | > 100 | 4.01 | > 100
O=C1CCCCC=C1C[N+](=O)[O-] | 17.9 | 45.8 | 46.4 | > 100 | 13.5 | 35.8 | 42.1 | > 100 | 14.7 | 35.2 | 3.7 | 12.3 | 20 | 55.1 | 26.6 | > 100
c1ccc(Nc2nc(-c3ccccn3)cs2)nc1 | 0.0992 | 2.12 | 0.297 | 6.61 | 0.172 | > 89.2 | 0.997 | > 100 | 1.98 | > 100 | 0.308 | 7.95 | 0.508 | > 100 | 0.395 | > 38.5
COc1cc2nc(-c3ccc(Cl)cc3)cc(OCCCN3CCCC3)c2cc1OC | 0.303 | 4.15 | 1.22 | 2.94 | 0.567 | 11.5 | 3.14 | 14.6 | 1.17 | 3.78 | 0.251 | 1.38 | 1.33 | 3.07 | 1.19 | 16.1
O=C(c1ccco1)c1c(C(F)(F)F)nc2ccc(C(F)(F)F)cc2[n+]1[O-] | 24.5 | > 83.2 | 33.2 | > 100 | > 86.9 | > 100 | 27.5 | > 79.7 | 26.5 | 62.2 | > 91.7 | > 100 | 33.6 | > 100 | 35.3 | > 100
Clc1cc2c(nn1)Nc1ccccc1S2 | > 100 | > 100 | > 100 | > 100 | > 100 | > 100 | > 100 | > 100 | > 100 | > 100 | > 100 | > 100 | > 100 | > 100 | > 100 | > 100
N#Cc1ccsc1NC(=O)COC(=O)c1cccc(S(=O)(=O)N2CCc3ccccc32)c1 | 42.4 | > 100 | 33.4 | > 100 | 3.25 | > 100 | 55.8 | > 100 | 31.3 | > 100 | 22.9 | > 100 | 19.8 | > 100 |  | 
